Reference: patent US4346099A, “Carboxy-imidazole derivatives, compositions and use” (Ono Pharmaceutical Co., Ltd., priority 1981, dated 1982)
Structures can show the parent of a compound that is named as a salt.

Biological target: T1, thromboxane synthetase from rabbit platelet microsomes (Oryctolagus cuniculus, UniProt G1TAZ9)
T1 construct: thromboxane synthetase from rabbit platelet microsomes; from tissue; host or cells: rabbit platelet microsomes
T1 sequence (G1TAZ9 1-530): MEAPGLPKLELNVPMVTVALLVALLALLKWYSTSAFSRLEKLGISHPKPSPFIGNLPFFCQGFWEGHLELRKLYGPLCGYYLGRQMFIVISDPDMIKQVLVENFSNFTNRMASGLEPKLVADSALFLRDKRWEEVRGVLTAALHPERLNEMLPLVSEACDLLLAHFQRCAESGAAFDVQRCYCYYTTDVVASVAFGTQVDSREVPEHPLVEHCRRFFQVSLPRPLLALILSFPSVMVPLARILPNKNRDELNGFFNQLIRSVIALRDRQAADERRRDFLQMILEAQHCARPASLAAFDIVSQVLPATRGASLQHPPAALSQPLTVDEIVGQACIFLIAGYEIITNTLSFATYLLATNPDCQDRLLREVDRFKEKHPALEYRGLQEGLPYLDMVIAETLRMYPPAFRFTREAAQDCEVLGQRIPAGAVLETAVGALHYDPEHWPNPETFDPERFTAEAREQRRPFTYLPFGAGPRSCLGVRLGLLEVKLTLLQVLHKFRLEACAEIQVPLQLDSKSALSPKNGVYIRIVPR
Test: inhibition of thromboxane synthetase from rabbit platelet microsomes (standard laboratory tests)
Type: biochemical

Row | SMILES | IC50 [nM]
1 | O=C(O)C1(CCCCCCn2ccnc2)CCCCC1 [1-(7-carboxy-7,7-pentanoheptyl)imidazole hydrochloride] | 46
2 | O=C(O)C(CCCCCCn1ccnc1)c1ccccc1 (centres unmarked) [1-(7-carboxy-7-phenylheptyl)imidazole hydrochloride] | 38
